Patent US20230310661A1, “OPHTHALMIC DYE” (Vitreq B.V., priority 2020, published 2023)
Where two headings read alike, the source gives them in different places.

Columns and labels:
ARPE19 cells = test: Staining of dead cells and/or living cells: dye content in ARPE19 cells by spectrophotometry; type: cell-based, human; details: 15 minutes staining; for Adead (maximum absorbance for dead cells): ARPE19 cells fixed with 70% ethanol 5 minutes; for Aliving (maximum absorbance for living cells): living ARPE19 cells
ARPE-19 cells [1] = test: Toxicity: survival of cells after exposure to dyes; type: cell-based; details: for Survival of ARPE-19 cells: 0.1% in PBS for 15 minutes at 37° C.
Method: A preferred dye, being either a compound according to the invention or an additional dye as defined above, has a good staining ability for dead cells, a minimal cellular toxicity in the dark, and a minimal cellular toxicity in the strong illumination necessary for surgery.
According to a preferred definition, a low toxicity means that at least 60%, 65%, 70%, 75%, 80%, 85%, 90% or 95% cell viability is retained after incubation in PBS for 15 minutes at 37° C. and 5% CO2, as determined using the methodology of Example 6.

[2] = Staining ability on PVDF filter as ILM model; details: for Mean intensity of the grey values of stained filter: 30 s contact, scale 255 is white and 0 is black; for Ability to stain the ILM (comparative statement): PVDF filter as model for the ILM
Description: Correlation between staining of the filter and observed staining of the ILM in patients (data from (Rodrigues, Penha et al. 2010)) show a good correlation (see FIG. 1). A 96-well filter (MSBVN1210 MultiScreen BV Filter Plate, Merck-Millipore, Darmstadt, Germany) was used as ILM model. The filter material is hydrophilic polyvinylidene difluoride (PVDF). A Collagen Cell Carrier membrane (CCC) (Viscofan, Weinheim, Germany) was used as model for the ERM. Punches of the membrane (5 mm diameter) were fixed to the filter with a hypodermic needle and soaked in PBS for 30 minutes. The PBS was removed by vacuum filtration, and 50 μL of the dye solution was pipetted into the filter well. After 30 s, the dye was removed by vacuum filtration, and membrane and filter were washed three times with PBS. The membrane was removed and put into a 96-well plate for spectrum recording, using a Tecan Spark 20M (Tecan Group Ltd., Männedorf, Switzerland) plate reader. The filter staining of the compounds (6) and (8) according to the invention are shown in FIG. 2 in comparison to that of BBG. […] The intensity of the grey values was measured. For BBG the mean intensity was 201, for compound (6) it was 175, for compound (8) it was 197. On the scale used, 255 is white and 0 is black.

ARPE-19 cells [3] = test: Three-step staining (dye, calcein-AM, propidium iodide) with microphotographs; type: cell-based, human; details: 0.025% in PBS, room temperature, 15 minutes; 20% ethanol 5 minutes to induce death in some cells; FIG. 3
Method: An experiment was carried out with ARPE-19 cells and staining with compound (6).
A three-step staining procedure was used: first the dye was introduced, then calcein-acetoxymethyl ester (calcein-AM), then propidium iodide (PI). Calcein-AM (which is non-fluorescent) is able to penetrate cell membranes and is hydrolyzed by intracellular esterases to calcein, which is fluorescent and which cannot escape through the intact cell membrane. Cells fluorescent for calcein-AM are therefore intact and living cells. Dead cells (cells with a compromised cell membrane) might still hydrolyze calcein-AM, but they are not able to retain the calcein. Cells with compromised cell membranes can take up propidium iodide, a dye which intercalates into DNA and turns fluorescent upon binding.
Cells were grown in 48-well plates. Growth medium was removed and a solution of 20% ethanol was added for 5 minutes in order to induce cell death in some cells. The ethanol solutions were removed. Staining with compound (6) (0.025%) in PBS was carried out at room temperature for 15 minutes. The dye was washed off with PBS. The cells were then exposed to calcein-acetoxymethyl ester (calcein-AM) in PBS for 15 minutes at room temperature. […]

[4] = dye 0.1% w/v in PBS, <0.07 = does not stain
[5] = concentration of the dye 0.025%

Methyl Violet
Adead (maximum absorbance for dead cells) (ARPE19 cells; dye 0.1% w/v in PBS): 0.8900

CC1=CC(=[N+](C)Cc2cccc(S(=O)(=O)[O-])c2)C=CC1=C(c1ccc(Nc2ccc(OC(C)C)cc2)cc1)c1ccc(N(C)Cc2cccc(S(=O)(=O)O)c2)cc1C [(1)]
Adead (maximum absorbance for dead cells) (ARPE19 cells; dye 0.1% w/v in PBS): 0.3481 | Aliving (maximum absorbance for living cells) (ARPE19 cells; [4]): 0.0283

CCN(Cc1cccc(S(=O)(=O)O)c1)c1ccc(C(=C2C=CC(=[N+](CC)Cc3cccc(S(=O)(=O)[O-])c3)C=C2C)c2ccc(Nc3ccc(OC(C)C)cc3)cc2)c(C)c1 [(3)]
Adead (maximum absorbance for dead cells) (ARPE19 cells; dye 0.1% w/v in PBS): 0.6387 | Aliving (maximum absorbance for living cells) (ARPE19 cells; [4]): 0.0440

CCN(Cc1cccc(S(=O)(=O)O)c1)c1ccc(C(=C2C=CC(=[N+](CC)Cc3cccc(S(=O)(=O)O)c3)C=C2)c2ccc(S(=O)(=O)O)cc2)cc1.[Na+].[Na+] [Light Green SF]
Adead (maximum absorbance for dead cells) (ARPE19 cells; dye 0.1% w/v in PBS): 0.0080 | Aliving (maximum absorbance for living cells) (ARPE19 cells; [4]): 0.0065

CCN(CC)c1ccc(C(=C2C=CC(=[N+](CC)CC)C=C2)c2ccccc2)cc1 [Brilliant Green]
Adead (maximum absorbance for dead cells) (ARPE19 cells; dye 0.1% w/v in PBS): 0.0568 | Aliving (maximum absorbance for living cells) (ARPE19 cells; [4]): 0.1088

CCOc1ccc(N(C)c2ccc(C(=C3C=CC(=[N+](CC)Cc4cccc(S(=O)(=O)[O-])c4)C=C3C)c3ccc(N(CC)Cc4cccc(S(=O)(=O)O)c4)cc3C)cc2)cc1 [MBBG]
Adead (maximum absorbance for dead cells) (ARPE19 cells; dye 0.1% w/v in PBS): 0.6876 | Aliving (maximum absorbance for living cells) (ARPE19 cells; [4]): 0.0355

CCOc1ccc(N(CC)c2ccc(C(=C3C=CC(=[N+](CC)Cc4cccc(S(=O)(=O)[O-])c4)C=C3C)c3ccc(N(CC)Cc4cccc(S(=O)(=O)O)c4)cc3C)cc2)cc1 [EBBG]
Adead (maximum absorbance for dead cells) (ARPE19 cells; dye 0.1% w/v in PBS): 0.9066 | Aliving (maximum absorbance for living cells) (ARPE19 cells; [4]): 0.0724 | Survival (ARPE-19 cells [1]; dye concentration 0.025%): 93%

CCOc1ccc(Nc2ccc(/C(=C3C=C/C(=[N+](/CC)Cc4cccc(S(=O)(=O)[O-])c4)C=C/3C)c3ccc(N(CC)Cc4cccc(S(=O)(=O)[O-])c4)cc3C)cc2)cc1.[Na+] [BBG, Brilliant Blue G]
Adead (maximum absorbance for dead cells) (ARPE19 cells; dye 0.1% w/v in PBS): 0.5651 | Aliving (maximum absorbance for living cells) (ARPE19 cells; [4]): 0.0328 | Mean intensity of the grey values of stained filter ([2]; dye 0.025%): 201 | Survival (ARPE-19 cells [1]): 99%

CCN(Cc1cccc(S(=O)(=O)O)c1)c1ccc(C(=C2C=CC(=[N+](CC)Cc3cccc(S(=O)(=O)[O-])c3)C=C2C)c2ccc(Nc3ccc(Oc4ccccc4)cc3)cc2)c(C)c1 [(7)]
Adead (maximum absorbance for dead cells) (ARPE19 cells; [5]): 0.1976 | Aliving (maximum absorbance for living cells) (ARPE19 cells; [5]): 0.0216 | Survival of ARPE-19 cells (ARPE-19 cells [1]): 81% | Survival (ARPE-19 cells [1]; dye concentration 0.025%): 81%

Acid Violet
Adead (maximum absorbance for dead cells) (ARPE19 cells; dye 0.1% w/v in PBS): 0.2077 | Aliving (maximum absorbance for living cells) (ARPE19 cells; [4]): 0.0184

CCN(Cc1cccc(S(=O)(=O)O)c1)c1ccc(C(=C2C=CC(=[N+](CC)Cc3cccc(S(=O)(=O)[O-])c3)C=C2C)c2ccc(Nc3ccc(Nc4ccccc4)cc3)cc2)c(C)c1 [(8)]
Adead (maximum absorbance for dead cells) (ARPE19 cells; dye 0.1% w/v in PBS): 0.8411 | Aliving (maximum absorbance for living cells) (ARPE19 cells; [4]): 0.0629 | Ability to stain the ILM (comparative statement) [2]: increased ability to stain the ILM compared to compound (6) | Mean intensity of the grey values of stained filter ([2]; dye 0.005%): 197 | Filter staining in comparison to BBG and compound (6) ([2]; dye at 0.005%, comparators at 0.025%, FIG. 2): even stronger staining | Survival of ARPE-19 cells (ARPE-19 cells [1]): 79% | Survival (ARPE-19 cells [1]; dye concentration 0.025%): 79%

CCCOc1ccc(Nc2ccc(C(=C3C=CC(=[N+](CC)Cc4cccc(S(=O)(=O)[O-])c4)C=C3C)c3ccc(N(CC)Cc4cccc(S(=O)(=O)O)c4)cc3C)cc2)cc1 [(4)]
Adead (maximum absorbance for dead cells) (ARPE19 cells; dye 0.1% w/v in PBS): 0.8084 | Aliving (maximum absorbance for living cells) (ARPE19 cells; [4]): 0.0485

Cc1cc(-c2ccc(/N=N/c3c(S(=O)(=O)O)cc4cc(S(=O)(=O)O)cc(N)c4c3O)c(C)c2)ccc1/N=N/c1c(S(=O)(=O)O)cc2cc(S(=O)(=O)O)cc(N)c2c1O [Trypan Blue]
Adead (maximum absorbance for dead cells) (ARPE19 cells; dye 0.1% w/v in PBS): 0.0847 | Aliving (maximum absorbance for living cells) (ARPE19 cells; [4]): 0.0135

Patent Blue 1
Adead (maximum absorbance for dead cells) (ARPE19 cells; dye 0.1% w/v in PBS): 0.0113 | Aliving (maximum absorbance for living cells) (ARPE19 cells; [4]): 0.0155

CCCCN(c1ccc(OCC)cc1)c1ccc(C(=C2C=CC(=[N+](CC)Cc3cccc(S(=O)(=O)[O-])c3)C=C2C)c2ccc(N(CC)Cc3cccc(S(=O)(=O)O)c3)cc2C)cc1 [BBBG]
Adead (maximum absorbance for dead cells) (ARPE19 cells; dye 0.1% w/v in PBS): 0.7941 | Aliving (maximum absorbance for living cells) (ARPE19 cells; [4]): 0.1491 | Survival (ARPE-19 cells [1]; dye concentration 0.005%): 67%

CN(C)c1ccc(C(=C2C=CC(=[N+](C)C)C=C2)c2ccc([N+](C)(C)C)cc2)cc1.[Cl-].[Cl-] [Methyl Green]
Adead (maximum absorbance for dead cells) (ARPE19 cells; dye 0.1% w/v in PBS): 0.0750 | Aliving (maximum absorbance for living cells) (ARPE19 cells; [4]): 0.0489

CC1(C)C(/C=C/C=C/C=C/C=C2\N(CCCCS(=O)(=O)O)c3ccc4ccccc4c3C2(C)C)=[N+](CCCCS(=O)(=O)[O-])c2ccc3ccccc3c21 [ICG, indocyanine green]
Adead (maximum absorbance for dead cells) (ARPE19 cells; dye 0.1% w/v in PBS): 1.1751 | Aliving (maximum absorbance for living cells) (ARPE19 cells; [4]): 0.0703

O=C1OC2(c3ccccc31)c1cc(Br)c(O)c(Br)c1Oc1c2cc(Br)c(O)c1Br [Eosin]
Adead (maximum absorbance for dead cells) (ARPE19 cells; dye 0.1% w/v in PBS): 0.2358 | Aliving (maximum absorbance for living cells) (ARPE19 cells; [4]): 0.0362

CN(C)c1ccc(C(=C2C=CC(=[N+](C)C)C=C2)c2ccccc2)cc1 [Malachite Green]
Adead (maximum absorbance for dead cells) (ARPE19 cells; dye 0.1% w/v in PBS): 0.0068 | Aliving (maximum absorbance for living cells) (ARPE19 cells; [4]): 0.0058

CN(C)c1ccc(C(=C2C=CC(=[N+](C)C)C=C2)c2ccc(N(C)C)cc2)cc1 [Crystal Violet]
Adead (maximum absorbance for dead cells) (ARPE19 cells; dye 0.1% w/v in PBS): 0.4365

Aniline Blue
Adead (maximum absorbance for dead cells) (ARPE19 cells; dye 0.1% w/v in PBS): 0.0057 | Aliving (maximum absorbance for living cells) (ARPE19 cells; [4]): 0.0080

CCN(Cc1cccc(S(=O)(=O)O)c1)c1ccc(C(=C2C=CC(=[N+](CC)Cc3cccc(S(=O)(=O)[O-])c3)C=C2C)c2ccc(Nc3ccc(OCc4ccccc4)cc3)cc2)c(C)c1 [(5)]
Adead (maximum absorbance for dead cells) (ARPE19 cells; dye 0.1% w/v in PBS): 0.6734 | Aliving (maximum absorbance for living cells) (ARPE19 cells; [4]): 0.0327 | Survival of ARPE-19 cells (ARPE-19 cells [1]): 81% | Survival (ARPE-19 cells [1]; dye concentration 0.025%): 81%

O=S1(=O)OC(c2cc(Br)c(O)c(Br)c2)(c2cc(Br)c(O)c(Br)c2)c2ccccc21 [Bromophenol Blue]
Adead (maximum absorbance for dead cells) (ARPE19 cells; dye 0.1% w/v in PBS): 0.0357 | Aliving (maximum absorbance for living cells) (ARPE19 cells; [4]): 0.0059

CCN(Cc1cccc(S(=O)(=O)O)c1)c1ccc(C(=C2C=CC(=[N+](CC)Cc3cccc(S(=O)(=O)[O-])c3)C=C2C)c2ccc(Nc3ccc(OC)cc3)cc2)c(C)c1 [Compound (6)]
Adead (maximum absorbance for dead cells) (ARPE19 cells; [5]): 0.3630 | Adead (maximum absorbance for dead cells) (ARPE19 cells; dye 0.1% w/v in PBS): 0.8755 | Aliving (maximum absorbance for living cells) (ARPE19 cells; [5]): 0.0635 | Aliving (maximum absorbance for living cells) (ARPE19 cells; [4]): 0.0603 | Staining of living cells (microscopy) (ARPE-19 cells [3]): does not stain living cells | Ability to stain the ILM (comparative statement) [2]: increased ability to stain the ILM compared to BBG | Mean intensity of the grey values of stained filter ([2]; dye 0.025%): 175 | Filter staining in comparison to BBG ([2]; equal concentrations of 0.025%, FIG. 2): Much stronger staining | Survival of ARPE-19 cells (ARPE-19 cells [1]): 103% | Survival (ARPE-19 cells [1]; dye concentration 0.025%): 103%

CC1=CC(=[N+](C)Cc2cccc(S(=O)(=O)[O-])c2)C=CC1=C(c1ccc(Nc2ccc(OCc3ccccc3)cc2)cc1)c1ccc(N(C)Cc2cccc(S(=O)(=O)O)c2)cc1C [(2)]
Adead (maximum absorbance for dead cells) (ARPE19 cells; dye 0.1% w/v in PBS): 0.2454 | Aliving (maximum absorbance for living cells) (ARPE19 cells; [4]): 0.0253

CCCN(c1ccc(OCC)cc1)c1ccc(C(=C2C=CC(=[N+](CC)Cc3cccc(S(=O)(=O)[O-])c3)C=C2C)c2ccc(N(CC)Cc3cccc(S(=O)(=O)O)c3)cc2C)cc1 [PBBG]
Adead (maximum absorbance for dead cells) (ARPE19 cells; dye 0.1% w/v in PBS): 0.7369 | Aliving (maximum absorbance for living cells) (ARPE19 cells; [4]): 0.1331 | Survival (ARPE-19 cells [1]; dye concentration 0.005%): 66%
